# Literature values in patent publication US9155796B2, “Hydrogels with covalently linked polypeptides” (SUSAVION BIOSCIENCES, INC., priority 2012, dated 2015).
# System: peripheral blood mononuclear cells (PBMCs)
# Conditions: PBMC cultures; within 4 hours
row,Substance,increased PDGF secretion
1,"(WNSTL-PEG2-)4-Lys2-Lys-PEG2-Cys[CH2CH(Me): CH2]—NH2 (not fully specified; tetravalent Lys dendrimer, PEG2 linkers, modified Cys amide; Therapeutic peptide) [SVH1B]",two- to four-fold
2,"(VSNQH-PEG2-)4-Lys2-Lys-PEG2-Cys[—CH2CH(Me): CH2]—NH2 (not fully specified; tetravalent Lys dendrimer, PEG2 linkers, modified Cys amide; Therapeutic peptide) [SVD2]",two- to four-fold
3,"(VQATQS-PEG2-)4-Lys2-Lys-PEG2-Cys[—CH2CH(Me): CH2]—NH2 (not fully specified; tetravalent Lys dendrimer, PEG2 linkers, modified Cys amide; Therapeutic peptide) [SVC1]",two- to four-fold
4,"(NQHTPR-PEG2-)4-Lys2-Lys-PEG2-Cys[—CH2CH(Me): CH2]—NH2 (not fully specified; tetravalent Lys dendrimer, PEG2 linkers, modified Cys amide; Therapeutic peptide) [SV6D]",two- to four-fold
